# Results from patent publication US10928381B2, “In vitro methods of monitoring autophagy in a human cell using a photoconvertable fluorescent protein linked biomarker” (The Regents of the University of Michigan, priority 2018, dated 2021).
# Columns and labels:
# Dendra2-LC3 HEK cells = test: Native (green, GFP) Dendra2-LC3 intensity and puncta, phase I primary screen readout (T15/T0); assay type: cell-based, human; conditions: for GFP intensity of native Dendra2-LC3: vs DMSO
# Text: Conventional methods for estimating autophagy flux rely upon the assessment of LC3 or other autophagy substrates by Western blotting or immunocytochemistry (Ref. 27; herein incorporated by reference in its entirety); by their very nature, these techniques are static and limited to dead cells. Fluorescence-based methods that use tagged substrates allow visualization of autophagy within living cells, but typically require the overexpression of autophagy target proteins that may disrupt the very process they are intended to measure. To assess autophagy in human cells without compromising or interfering with the pathway, experiments were conducted during development of embodiments herein utilizing CRISPR/Cas9 genome editing (Refs. 29-30; herein incorporated by reference in their entireties) to insert the Dendra2 open reading frame into the MAP1LC3B locus (encoding LC3) of HEK cells (FIG. 2a). A mutated, nickase version of Cas9 (Cas9n) was used that is incapable of making double-stranded DNA breaks, thereby minimizing the risk of non-homologous end joining and unwanted insertions or deletions (Refs. 29, 35; herein incorporated by reference in their entireties). Two separate single guide RNAs (sgRNAs) were designed that recognize sequences just upstream and downstream of the MAP1LC3B start codon, and a homology directed repair (HDR) vector encoding the Dendra2 open reading frame flanked by 400 bp of homologous sequence surrounding the MAP1LC3B start codon (FIG. 2a). Following expression of the sgRNAs, Cas9n and the HDR in HEK cells, colonies were selected based upon green fluorescence and passaged to homogeneity (FIG. 2b). The insertion site was confirmed by DNA sequencing, PCR, and immunocytochemistry using antibodies that recognize LC3. Providing further validation of the insertion, transfection with siRNA directed against the MAP1LC3B locus elicited a significant reduction in Dendra2-LC3 protein levels as measured by western blotting and native GFP fluorescence (FIG. 2c, d). In untreated cells, Dendra2-LC3 fluorescence appears diffuse, as expected (FIG. 3a). […] Second, autophagy induction in these cells is accompanied not only by the formation of puncta, but also by relative decreases in diffuse Dendra2-LC3 fluorescence, as indicated by the model in FIG. 1.
# For these studies the potent mTOR inhibitor torin1 (Ref. 36; herein incorporated by reference in its entirety) was selected as a positive control for autophagy induction, and the vacuolar ATPase inhibitor bafilomycin-A1 (Ref. 37; herein incorporated by reference in its entirety) as a positive control for autophagy inhibition. In each case, DMSO served as a vehicle (negative) control. Dendra2-LC3 was photoconverted immediately prior to drug application, and the fluorescence intensity in the green (GFP) and red (RFP) channels was measured at regular intervals for 15 h.
# The Z′ value for the effect of torin1 on the normalized GFP intensity, calculated as a ratio of GFP intensity at 15 h to that at 0 h (T15/T0), was 0.63 when the assay was conducted in a 96-well format in our laboratory, and 0.56 when conducted in a 384-well format at the Center for Chemical Genomics (CCG, FIG. 3e), indicative of a robust screening platform (Ref. 38; herein incorporated by reference in its entirety). […] The false negative rate was near zero, ensuring a highly sensitive assay.
# The possibility that cell death and toxicity mimics the reduction in GFP intensity that would otherwise denote autophagy induction was also addressed. To avoid confounding from toxicity, the area occupied by cells in each image is calculated using ImageJ software and used as a proxy for cell number; since all wells received the same number of cells, >25% reductions in the area occupied by cells at the end of the experiment indicates toxicity. The formation of Dendra2-LC3 puncta in each condition is scored simultaneously using the ‘analyze particles’ function in ImageJ. […]
# [1] = system: Tandem reporter (RFP-GFP-LC3) HeLa cells; test: Tandem reporter (RFP-GFP-LC3) assay, % of RFP puncta that are GFP positive; assay type: cell-based; conditions: imaged after 12 hours
# Method: FIG. 13A-E. Validation of novel autophagy inhibitors with an independent measure of autophagic flux. (FIG. 13A) Tandem reporter (RFP-GFP-LC3) HeLa cells treated with the indicated compounds and imaged after 12 hours in RFP (middle panels) GFP (bottom panels). […] Concentrations used correspond to the lowest dose resulting in the maximum degree of colocalization between GFP and RFP puncta as calculated in (B). These are: 3 nM Bafilomycin, 1 uM Quinacrine, 50 uM 245536, and 100 uM of 254522, 45808, 234794, and 237373. (Scale bar: 50 μm) (FIG. 13B) The percentage of RFP positive puncta that are also GFP positive in tandem reporter HeLa cells was analyzed using Cell Profiler. First GFP (1a) and RFP (1b) images of the same field of cells are uploaded into Cell Profiler. Using the GFP images, nuclei are identified (2a-green outlines) and a nuclear mask (2b) is generated. […] Cellular boundries are identified (3a-purple outlines) and a cellular mask is created. […] Only puncta within this mask will be evaluated in subsequent steps. […] (FIG. 13D) Tandem reporter HeLa cells were imaged once prior to drug treatment and then treated with the lowest dose that produced the maximum response as calculated in (FIG. 13C) and imaged immediately after. […] Each point is calculated by taking the mean % of (GFP+/RFP+ puncta)/(RFP+) from 8 technical replicates. […]
SMILES,Effect on torin1-elicited reduction in GFP intensity (Dendra2-LC3 HEK cells; co-treatment with torin1),Lowest dose resulting in the maximum degree of colocalization between GFP and RFP puncta [1],"Formation of Dendra2-LC3 (LC3-positive) puncta (Dendra2-LC3 HEK cells; FPZ 0.5 μM, torin1 1 μM)","GFP intensity of native Dendra2-LC3 (Dendra2-LC3 HEK cells; FPZ 0.5 μM, torin1 1 μM)","GFP intensity of native Dendra2-LC3 (Dendra2-LC3 HEK cells; FPZ 0.5 μM, torin1 1 μM, listed as torin1)","GFP intensity of native Dendra2-LC3 (Dendra2-LC3 HEK cells; FPZ 0.5 μM, torin1 1 μM, listed as torin-1)",Rank among autophagy inducers in phase I (Dendra2-LC3 HEK cells; Prestwick and Enzo collections)
"CO/C1=C\C(C)=C\[C@@H](C)[C@@H](O)[C@@H](C)C/C(C)=C/C=C/[C@H](OC)[C@@H]([C@@H](C)[C@@H](O)[C@H](C)[C@@]2(O)C[C@@H](O)[C@H](C)[C@@H](C(C)C)O2)OC1=O [Bafilomycin-A1, bafilomycin-A1]",fully blocked,3 nM,–,–,–,–,–
"CCC(=O)N1CCN(c2ccc(-n3c(=O)ccc4cnc5ccc(-c6cnc7ccccc7c6)cc5c43)cc2C(F)(F)F)CC1 [Torin1, torin1]",–,–,elicits the formation of LC3-positive puncta,return is prevented,highly significant and durable reduction,reduces the steady-state GFP intensity,rank among the most potent inducers
